Assay results: patent US20240199598A1 (MITOIMMUNE THERAPEUTICS INC., priority 2021, published 2024)
“Also recorded” adds a separate entry of the source. Read-outs that look alike come from different tables or passages of the source.

Columns and labels:
[1] = Simulated gastrointestinal fluid solubility test (SGF, FaSSIF, FeSSIF); format: physicochemical; conditions: fed state simulated intestinal fluid (FeSSIF), 37 °C, pH 4.98, fessif, thermodynamic from solid
Procedure: As simulated gastrointestinal fluid media (Biorelevant dissolution media) used for environment assessment in the simulated gastrointestinal tract, simulated gastric fluid (SGF), fasted state simulated intestinal fluid (FaSSIF), and fed state simulated intestinal fluid (FeSSIF) were used, and a detailed description of the test is as follows.
All vials were placed on a hot plate stirrer and maintained while stirring at 37° C. and 700 rpm. […] After mixing at 37° C. for 24 hours, 300 μL of the suspension was separated from each vial and analyzed.
The analysis sample was centrifuged at 14000 rpm for 5 minutes, and then the supernatant was diluted 10-fold with ACN:H2O (7/3, v/v) and analyzed by ultra-performance liquid chromatography (UPLC).

[2] = Physicochemical stability test of free form and 5 salts (60° C., 40° C./75% humidity, light); conditions: for Final purity: HPLC
Procedure: In the case of a light stability test, the vial was stored in a light stability test chamber while being not closed with a lid, and exposed to a total illuminance of 1.2 million lux-hr. A vial light-shielded with aluminum foil was used as an experimental control (Dark control). For stability assessment, state assessment by visual observation, purity assessment using HPLC, and crystalline form assessment using XRPD were conducted, and results thereof are shown in Table 7. […] In FIGS. 19 to 30, “Light” represents light irradiation condition results.

[3] = Solubility test of sulfate (Crystalline form III) in various solvents; format: physicochemical; conditions: thermodynamic from solid
Procedure: First, solvent screening was performed for a study on various crystalline forms.

[4] = Oral administration pharmacokinetic test using mice; conditions: mice, oral

`O=S1(=O)CCN(Cc2cc(NC3CCOCC3)c3[nH]c(-c4ccccc4)cc3c2)CC1` [Sulfate] gave a solubility at 24 h ([1]; FeSSIF (pH = 4.98), 37° C., after 24 hours, read-out: Solubility) of 130 µg/mL, a solubility at 24 h ([1]; summary Table 9, read-out: Stimulated gastrointestinal fluid solubility, FeSSIF) of 130 µg/mL and an Assay ([2]; 1.2 million lux-hr) of 104.98%. The Purity change ([2]; 1.2 million lux-hr) was “+0.14%”, the XRPD patterns ([2]; 1.2 million lux-hr) was “Pattern 2-I” and the Final purity ([2]; 1.2 million lux-hr) was 99.87%. The Appearance ([2]; 40° C./75% RH, 1 w) was “White powder”, the Assay ([2]; 40° C./75% RH, 1 w) was 109.86% and the Purity change ([2]; 40° C./75% RH, 1 w) was −0.43%. For the same compound, the XRPD patterns ([2]; 40° C./75% RH, 1 w) was “Pattern 2-I”, the Final purity ([2]; 40° C./75% RH, 1 w) was 99.30% and the “Chemical stability (purity change %/1 w), 40° C./75% RH” value ([2]; 40° C./75% RH, 1 w, summary Table 9) was −0.43%. The Appearance ([2]; 60° C., 1 w) was “White powder”, the Assay ([2]; 60° C., 1 w) was 110.59% and the Purity change ([2]; 60° C., 1 w) was “+0.1%”. For the same compound, the XRPD patterns ([2]; 60° C., 1 w) was “Pattern 2-I”, the Final purity ([2]; 60° C., 1 w) was 99.83% and the “Chemical stability (purity change %/1 w), 60° C.” value ([2]; 60° C., 1 w, summary Table 9) was 0.1%. The “Sensitivity to heat, humidity and light conditions (in words)” value ([2]; 60° C., 40° C./75% humidity, 1.2 million lux-hr, listed as sulfate of the compound of Chemical Formula 1) was “sensitive under a humidity condition; also recorded: comparable results to the free form of the compound of Chemical Formula 1 under high-temperature and light stability conditions, except for a humidity condition”, the Assay ([2]; Dark control) was 105.93% and the Purity change ([2]; Dark control) was “+0.02%”. For the same compound, the XRPD patterns ([2]; Dark control) was “Pattern 2-I”, the Final purity ([2]; Dark control) was 99.75% and the “Chemical stability (purity change %/1 w), Light stability” value ([2]; light stability, summary Table 9) was 0.14%. For the same compound, the solubility ([3]; aqueous with cosolvent or surfactant or cyclodextrin, Acetic acid-H2O (1:1), 25° C., read-out: Solubility) was 196000 to 295000 µg/mL, the solubility ([3]; aqueous with cosolvent or surfactant or cyclodextrin, Acetic acid-H2O (1:1), 50° C., read-out: Solubility) was 300000 to 599000 µg/mL and the solubility ([3]; aqueous with cosolvent or surfactant or cyclodextrin, Acetone-H2O (1:2), 25° C., read-out: Solubility) was 9000 to 19000 µg/mL. The solubility ([3]; aqueous with cosolvent or surfactant or cyclodextrin, Acetone-H2O (1:2), 50° C., read-out: Solubility) was 37000 to 75000 µg/mL, the solubility ([3]; aqueous with cosolvent or surfactant or cyclodextrin, MeOH/H2O = 1:1(v/v), 25° C., read-out: Solubility) was 2000 to 3000 µg/mL and the solubility ([3]; aqueous with cosolvent or surfactant or cyclodextrin, MeOH/H2O = 1:1(v/v), 50° C., read-out: Solubility) was 9000 to 19000 µg/mL. The solubility ([3]; aqueous with cosolvent or surfactant or cyclodextrin, in MeOH/H2O (1:1 (v:v)) and acetone/water (1:1 (v/v)), read-out: Solubility (good)) was 5000 to 40000 µg/mL, the solubility ([3]; organic solvent or mixture, 1-Butanol, 25° C., read-out: Solubility) was < 2000 µg/mL and the solubility ([3]; organic solvent or mixture, 1-Butanol, 50° C., read-out: Solubility) was < 2000 µg/mL. The solubility ([3]; organic solvent or mixture, 2-MeTHF, 25° C., read-out: Solubility) was < 2000 µg/mL, the solubility ([3]; organic solvent or mixture, 2-MeTHF, 50° C., read-out: Solubility) was < 2000 µg/mL and the solubility ([3]; organic solvent or mixture, ACN, 25° C., read-out: Solubility) was < 2000 µg/mL. For the same compound, the solubility ([3]; organic solvent or mixture, ACN, 50° C., read-out: Solubility) was < 2000 µg/mL, the solubility ([3]; organic solvent or mixture, Acetone, 25° C., read-out: Solubility) was < 2000 µg/mL and the solubility ([3]; organic solvent or mixture, Acetone, 50° C., read-out: Solubility) was < 2000 µg/mL. For the same compound, the solubility ([3]; organic solvent or mixture, CHCl3, 25° C., read-out: Solubility) was < 2000 µg/mL, the solubility ([3]; organic solvent or mixture, CHCl3, 50° C., read-out: Solubility) was < 2000 µg/mL and the solubility ([3]; organic solvent or mixture, DMF, 25° C., read-out: Solubility) was 202000 to 302000 µg/mL. For the same compound, the solubility ([3]; organic solvent or mixture, DMF, 50° C., read-out: Solubility) was 304000 to 608000 µg/mL, the solubility ([3]; organic solvent or mixture, DMSO, 25° C., read-out: Solubility) was 158000 to 210000 µg/mL and the solubility ([3]; organic solvent or mixture, DMSO, 50° C., read-out: Solubility) was 301000 to 602000 µg/mL. For the same compound, the solubility ([3]; organic solvent or mixture, EtOAc, 25° C., read-out: Solubility) was < 2000 µg/mL, the solubility ([3]; organic solvent or mixture, EtOAc, 50° C., read-out: Solubility) was < 2000 µg/mL and the solubility ([3]; organic solvent or mixture, EtOH, 25° C., read-out: Solubility) was < 2000 µg/mL. The solubility ([3]; organic solvent or mixture, EtOH, 50° C., read-out: Solubility) was < 2000 µg/mL, the solubility ([3]; organic solvent or mixture, Heptane, 25° C., read-out: Solubility) was < 2000 µg/mL and the solubility ([3]; organic solvent or mixture, Heptane, 50° C., read-out: Solubility) was < 2000 µg/mL. The solubility ([3]; organic solvent or mixture, IPA, 25° C., read-out: Solubility) was < 2000 µg/mL, the solubility ([3]; organic solvent or mixture, IPA, 50° C., read-out: Solubility) was < 2000 µg/mL and the solubility ([3]; organic solvent or mixture, MEK, 25° C., read-out: Solubility) was < 2000 µg/mL. The solubility ([3]; organic solvent or mixture, MEK, 50° C., read-out: Solubility) was < 2000 µg/mL, the solubility ([3]; organic solvent or mixture, MIBK, 25° C., read-out: Solubility) was < 2000 µg/mL and the solubility ([3]; organic solvent or mixture, MIBK, 50° C., read-out: Solubility) was < 2000 µg/mL. The solubility ([3]; organic solvent or mixture, MTBE, 25° C., read-out: Solubility) was < 2000 µg/mL, the solubility ([3]; organic solvent or mixture, MTBE, 50° C., read-out: Solubility) was < 2000 µg/mL and the solubility ([3]; organic solvent or mixture, MeOH, 25° C., read-out: Solubility) was < 2000 µg/mL. It also gave a solubility ([3]; organic solvent or mixture, MeOH, 50° C., read-out: Solubility) of 2000 to 3000 µg/mL, a solubility ([3]; organic solvent or mixture, NMP, 25° C., read-out: Solubility) of 156000 to 208000 µg/mL and a solubility ([3]; organic solvent or mixture, NMP, 50° C., read-out: Solubility) of 202000 to 304000 µg/mL. The solubility ([3]; organic solvent or mixture, THF, 25° C., read-out: Solubility) was < 2000 µg/mL, the solubility ([3]; organic solvent or mixture, THF, 50° C., read-out: Solubility) was < 2000 µg/mL and the solubility ([3]; organic solvent or mixture, Toluene, 25° C., read-out: Solubility) was < 2000 µg/mL. The solubility ([3]; organic solvent or mixture, Toluene, 50° C., read-out: Solubility) was < 2000 µg/mL, the solubility ([3]; organic solvent or mixture, iPrOAc, 25° C., read-out: Solubility) was < 2000 µg/mL and the solubility ([3]; organic solvent or mixture, iPrOAc, 50° C., read-out: Solubility) was < 2000 µg/mL. The solubility ([3]; organic solvent or mixture, in DMF, NMP, DMSO and acetic acid/water (1:1 (v:v)), read-out: Solubility (excellent)) was ≥ 150000 µg/mL, the solubility ([3]; organic solvent or mixture, in methanol, ethanol, isopropanol, 1-butanol, acetonitrile, acetone, MEK, MIBK, ethyl acetate, isopropyl acetate, MTBE, tetrahydrofuran, chloroform, toluene, heptane and water, read-out: Solubility (low)) was ≤ 5000 µg/mL and the solubility ([3]; Water, 25° C., read-out: Solubility) was < 2000 µg/mL. For the same compound, the solubility ([3]; Water, 50° C., read-out: Solubility) was < 2000 µg/mL, the Cmax ([4]; 10 mg/kg) was 3154.8 ng/mL and the t½ ([4]; 10 mg/kg) was 4.0 h. The AUClast ([4]; 10 mg/kg, listed as sulfate of the compound of Chemical Formula 1, 10 mg/kg) was 11499.35 ng·h/mL and the “Pharmacokinetic test, t½” value ([4]; summary Table 9) was 4 h.
